Patent US8598365B2, “Herbicides” (Syngenta Limited, priority 2007, dated 2013)

Tests used:
Type in all cases: in vivo
Setaria faberi (SETFA) [1] = assay: Example B post-emergence herbicidal activity; conditions: 312 h, rate 250 g/ha, evaluated after 13 days, read-out: Post-emergence activity SETFA (100=total damage to plant; 0=no damage to plant)
In short: (§1)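 Visual injury score (0 none to 100 total) taken 13 days after spraying. Treatment was applied pre-emergence at day 1 or post-emergence at day 8, using acetone/water 50:50 containing 0.5% Tween 20.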

[2] = test system: Amaranthus retoflexus (AMARE); assay: Example B post-emergence herbicidal activity; conditions: Amaranthus retroflexus, 312 h, rate 250 g/ha, evaluated after 13 days, read-out: Post-emergence activity AMARE (100=total damage to plant; 0=no damage to plant)
In short: as §1

Avena fatua (AVEFA) [3] = assay: Example B post-emergence herbicidal activity; conditions: 312 h, rate 250 g/ha, evaluated after 13 days, read-out: Post-emergence activity AVEFA (100=total damage to plant; 0=no damage to plant)
In short: as §1

[4] = test system: Echinochloa crus-galli (ECHCG); assay: Example B post-emergence herbicidal activity; conditions: 312 h, rate 250 g/ha, evaluated after 13 days, read-out: Post-emergence activity ECHCG (100=total damage to plant; 0=no damage to plant)
In short: as §1

[5] = test system: Alopecurus myosuroides (ALOMY); assay: Example B post-emergence herbicidal activity; conditions: 312 h, rate 250 g/ha, evaluated after 13 days, read-out: Post-emergence activity ALOMY (100=total damage to plant; 0=no damage to plant)
In short: as §1

Setaria faberi (SETFA) [6] = assay: Example B pre-emergence herbicidal activity; conditions: 312 h, rate 250 g/ha, evaluated after 13 days, read-out: Pre-Emergence Activity SETFA (100=total damage to plant; 0=no damage to plant)
Protocol: (§2) Seeds of a variety of test species were sown in standard soil in pots. After cultivation for one day (pre-emergence) or after 8 days cultivation (post-emergence) under controlled conditions in a glasshouse (at 24/16° C., day/night; 14 hours light; 65% humidity), the plants were sprayed with an aqueous spray solution derived from the formulation of the technical active ingredient in acetone/water (50:50) solution containing 0.5% Tween 20 (polyoxyethelyene sorbitan monolaurate, CAS RN 9005-64-5).
(§3) The test plants were then grown in a glasshouse under controlled conditions in a glasshouse (at 24/16° C., day/night; 14 hours light; 65% humidity) and watered twice daily. After 13 days for pre and post-emergence, the test was evaluated (100=total damage to plant; 0=no damage to plant).
(§4) Alopecurus myosuroides (ALOMY), Avena fatua (AVEFA), Setaria faberi (SETFA), Echinochloa crus-galli (ECHCG), Solanum nigrum (SOLNI) and Amaranthus retoflexus (AMARE)

[7] = test system: Amaranthus retoflexus (AMARE); assay: Example B pre-emergence herbicidal activity; conditions: Amaranthus retroflexus, 312 h, rate 250 g/ha, evaluated after 13 days, read-out: Pre-Emergence Activity AMARE (100=total damage to plant; 0=no damage to plant)
Protocol: as §2, §3, §4

Avena fatua (AVEFA) [8] = assay: Example B pre-emergence herbicidal activity; conditions: 312 h, rate 250 g/ha, evaluated after 13 days, read-out: Pre-Emergence Activity AVEFA (100=total damage to plant; 0=no damage to plant)
Protocol: as §2, §3, §4

[9] = test system: Echinochloa crus-galli (ECHCG); assay: Example B pre-emergence herbicidal activity; conditions: 312 h, rate 250 g/ha, evaluated after 13 days, read-out: Pre-Emergence Activity ECHCG (100=total damage to plant; 0=no damage to plant)
Protocol: as §2, §3, §4

[10] = test system: Alopecurus myosuroides (ALOMY); assay: Example B pre-emergence herbicidal activity; conditions: 312 h, rate 250 g/ha, evaluated after 13 days, read-out: Pre-Emergence Activity ALOMY (100=total damage to plant; 0=no damage to plant)
Protocol: as §2, §3, §4

How did the pest or weed control at 250 g/ha (Setaria faberi (SETFA) [1]) turn out when `CCc1sc(-c2ccc(Cl)c(F)c2)nc1C1C(=O)[C@@H]2CC[C@@H](C2)C1=O` (stereo partly shown) [Compound T27] was run?
Its pest or weed control at 250 g/ha is 100%.

What about the pest or weed control at 250 g/ha [2] of the same molecule?
The pest or weed control at 250 g/ha was 0%.

What about the pest or weed control at 250 g/ha (Avena fatua (AVEFA) [3]) of the same molecule?
The pest or weed control at 250 g/ha was 100%.

And the pest or weed control at 250 g/ha [4]?
Its pest or weed control at 250 g/ha is 100%.

And the pest or weed control at 250 g/ha [5]?
Its pest or weed control at 250 g/ha is 100%.

What about the pest or weed control at 250 g/ha (Setaria faberi (SETFA) [6]) of the same molecule?
Its pest or weed control at 250 g/ha is 100%.

And the pest or weed control at 250 g/ha [7]?
The pest or weed control at 250 g/ha was 0%.

What about the pest or weed control at 250 g/ha (Avena fatua (AVEFA) [8]) of the same molecule?
Its pest or weed control at 250 g/ha is 90%.

And the pest or weed control at 250 g/ha [9]?
Its pest or weed control at 250 g/ha is 100%.

And the pest or weed control at 250 g/ha [10]?
Its pest or weed control at 250 g/ha is 90%.

Which results are given for `CCc1sc(-c2ccc(Br)cc2)nc1C1C(=O)[C@@H]2CC[C@@H](C2)C1=O` (stereo partly shown) [Compound T28]?
pest or weed control at 250 g/ha (Setaria faberi (SETFA) [1]): 100%; pest or weed control at 250 g/ha [2]: 0%; pest or weed control at 250 g/ha (Avena fatua (AVEFA) [3]): 100%; pest or weed control at 250 g/ha [4]: 100%; pest or weed control at 250 g/ha [5]: 100%; pest or weed control at 250 g/ha (Setaria faberi (SETFA) [6]): 100%; pest or weed control at 250 g/ha [7]: 0%; pest or weed control at 250 g/ha (Avena fatua (AVEFA) [8]): 90%; pest or weed control at 250 g/ha [9]: 100%; pest or weed control at 250 g/ha [10]: 80%

What does the source list for `CCc1sc(-c2c(F)cc(Cl)cc2F)nc1C1C(=O)[C@@H]2CC[C@@H](C2)C1=O` (stereo partly shown) [Compound T29]?
pest or weed control at 250 g/ha (Setaria faberi (SETFA) [1]): 100%; pest or weed control at 250 g/ha [2]: 0%; pest or weed control at 250 g/ha (Avena fatua (AVEFA) [3]): 100%; pest or weed control at 250 g/ha [4]: 100%; pest or weed control at 250 g/ha [5]: 100%; pest or weed control at 250 g/ha (Setaria faberi (SETFA) [6]): 100%; pest or weed control at 250 g/ha [7]: 20%; pest or weed control at 250 g/ha (Avena fatua (AVEFA) [8]): 90%; pest or weed control at 250 g/ha [9]: 100%; pest or weed control at 250 g/ha [10]: 90%

For `Cc1sc(-c2ccc(I)cc2)nc1C1C(=O)[C@@H]2CC[C@@H](C2)C1=O` (stereo partly shown) [Compound T30], which pest or weed control at 250 g/ha (Setaria faberi (SETFA) [1]) is on record?
The pest or weed control at 250 g/ha was 100%.

What about the pest or weed control at 250 g/ha [2] of the same molecule?
The pest or weed control at 250 g/ha was 0%.

What about the pest or weed control at 250 g/ha (Avena fatua (AVEFA) [3]) of the same molecule?
The pest or weed control at 250 g/ha was 100%.

And the pest or weed control at 250 g/ha [4]?
The pest or weed control at 250 g/ha was 100%.

What about the pest or weed control at 250 g/ha [5] of the same molecule?
The pest or weed control at 250 g/ha was 100%.

And the pest or weed control at 250 g/ha (Setaria faberi (SETFA) [6])?
Its pest or weed control at 250 g/ha is 100%.

And the pest or weed control at 250 g/ha [7]?
Its pest or weed control at 250 g/ha is 20%.

And the pest or weed control at 250 g/ha (Avena fatua (AVEFA) [8])?
Its pest or weed control at 250 g/ha is 100%.

And the pest or weed control at 250 g/ha [9]?
The pest or weed control at 250 g/ha was 100%.

And the pest or weed control at 250 g/ha [10]?
The pest or weed control at 250 g/ha was 90%.

With `Cc1sc(-c2ccc(Br)cc2F)nc1C1C(=O)[C@@H]2CC[C@@H](C2)C1=O` (stereo partly shown) [Compound T32] as the molecule, how does the pest or weed control at 250 g/ha (Setaria faberi (SETFA) [1]) read?
Its pest or weed control at 250 g/ha is 100%.

What about the pest or weed control at 250 g/ha [2] of the same molecule?
The pest or weed control at 250 g/ha was 0%.

And the pest or weed control at 250 g/ha (Avena fatua (AVEFA) [3])?
The pest or weed control at 250 g/ha was 90%.

And the pest or weed control at 250 g/ha [4]?
Its pest or weed control at 250 g/ha is 100%.

What about the pest or weed control at 250 g/ha [5] of the same molecule?
Its pest or weed control at 250 g/ha is 100%.

What about the pest or weed control at 250 g/ha (Setaria faberi (SETFA) [6]) of the same molecule?
The pest or weed control at 250 g/ha was 100%.

And the pest or weed control at 250 g/ha [7]?
The pest or weed control at 250 g/ha was 0%.

And the pest or weed control at 250 g/ha (Avena fatua (AVEFA) [8])?
The pest or weed control at 250 g/ha was 80%.

And the pest or weed control at 250 g/ha [9]?
The pest or weed control at 250 g/ha was 100%.

And the pest or weed control at 250 g/ha [10]?
The pest or weed control at 250 g/ha was 90%.

With `CCc1sc(-c2ccc(Br)cc2F)nc1C1C(=O)[C@@H]2CC[C@@H](C2)C1=O` (stereo partly shown) [Compound T33] as the molecule, how does the pest or weed control at 250 g/ha (Setaria faberi (SETFA) [1]) read?
Its pest or weed control at 250 g/ha is 100%.

And the pest or weed control at 250 g/ha [2]?
Its pest or weed control at 250 g/ha is 0%.

What about the pest or weed control at 250 g/ha (Avena fatua (AVEFA) [3]) of the same molecule?
Its pest or weed control at 250 g/ha is 100%.

And the pest or weed control at 250 g/ha [4]?
The pest or weed control at 250 g/ha was 100%.

What about the pest or weed control at 250 g/ha [5] of the same molecule?
The pest or weed control at 250 g/ha was 100%.

What about the pest or weed control at 250 g/ha (Setaria faberi (SETFA) [6]) of the same molecule?
The pest or weed control at 250 g/ha was 100%.

What about the pest or weed control at 250 g/ha [7] of the same molecule?
The pest or weed control at 250 g/ha was 0%.

What about the pest or weed control at 250 g/ha (Avena fatua (AVEFA) [8]) of the same molecule?
The pest or weed control at 250 g/ha was 50%.

What about the pest or weed control at 250 g/ha [9] of the same molecule?
Its pest or weed control at 250 g/ha is 100%.

What about the pest or weed control at 250 g/ha [10] of the same molecule?
The pest or weed control at 250 g/ha was 90%.

`Cc1sc(-c2ccc(Cl)s2)nc1C1C(=O)[C@@H]2CC[C@@H](C2)C1=O` (stereo partly shown) [Compound T34] was tested. Which pest or weed control at 250 g/ha (Setaria faberi (SETFA) [1]) did it give?
Its pest or weed control at 250 g/ha is 90%.

What about the pest or weed control at 250 g/ha [2] of the same molecule?
Its pest or weed control at 250 g/ha is 0%.

And the pest or weed control at 250 g/ha (Avena fatua (AVEFA) [3])?
Its pest or weed control at 250 g/ha is 0%.

What about the pest or weed control at 250 g/ha [4] of the same molecule?
The pest or weed control at 250 g/ha was 80%.

And the pest or weed control at 250 g/ha [5]?
The pest or weed control at 250 g/ha was 70%.

And the pest or weed control at 250 g/ha (Setaria faberi (SETFA) [6])?
The pest or weed control at 250 g/ha was 20%.

And the pest or weed control at 250 g/ha [7]?
Its pest or weed control at 250 g/ha is 0%.

And the pest or weed control at 250 g/ha (Avena fatua (AVEFA) [8])?
The pest or weed control at 250 g/ha was 0%.

What about the pest or weed control at 250 g/ha [9] of the same molecule?
The pest or weed control at 250 g/ha was 20%.

And the pest or weed control at 250 g/ha [10]?
Its pest or weed control at 250 g/ha is 20%.
